Assay results from ChEMBL document CHEMBL1201862, “PubChem BioAssay data set” (2004).
Activity calls are given as the source filed them.

Key:
[1] = Luminescent dose response cell-based high throughput screening assay for inhibitors of the Janus kinase 2 mutant JAK2V617F. [Related pubchem assays: 1446 (Primary screen.), 1521 (Confirmation assay.), 1486 (Counter screen.)]; assay type: functional
[2] = target: T1, Heat shock factor protein 1 (Mus musculus, UniProt P38532); experiment: enhancement of HSF1-driven luciferase signal – cell-based, NIH3T3, luminescence, dose retest, confirmation (AID 435004); assay type: functional;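 note: stress induced by proteasome inhibitor MG132 added 30 min after compound; luciferase reporter driven by HSF1 response element in NIH3T3 cells; actives raise luminescence as potentiators of the MG132 stress response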
T1 sequence (P38532 whole entry): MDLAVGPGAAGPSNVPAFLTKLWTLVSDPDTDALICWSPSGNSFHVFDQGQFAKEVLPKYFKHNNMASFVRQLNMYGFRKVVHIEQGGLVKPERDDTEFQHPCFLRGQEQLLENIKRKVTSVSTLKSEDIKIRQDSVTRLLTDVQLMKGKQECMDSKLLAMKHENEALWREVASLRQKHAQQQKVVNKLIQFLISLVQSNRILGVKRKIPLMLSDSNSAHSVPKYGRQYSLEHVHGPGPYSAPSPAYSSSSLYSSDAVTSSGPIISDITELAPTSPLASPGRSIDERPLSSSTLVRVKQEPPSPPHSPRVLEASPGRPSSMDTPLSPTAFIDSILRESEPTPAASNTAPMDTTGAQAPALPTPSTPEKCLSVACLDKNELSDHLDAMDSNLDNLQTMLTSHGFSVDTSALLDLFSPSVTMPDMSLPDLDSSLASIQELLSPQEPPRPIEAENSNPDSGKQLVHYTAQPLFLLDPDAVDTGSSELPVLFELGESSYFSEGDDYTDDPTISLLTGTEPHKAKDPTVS

[3] = target: T2, Replicative DNA helicase DnaB (Mycobacterium tuberculosis, UniProt P9WMR3); experiment: DnaB intein splicing inhibitors, dose response, biochemical, cell-free fluorescence (AID 449749); assay type: functional
T2 sequence (P9WMR3 whole entry): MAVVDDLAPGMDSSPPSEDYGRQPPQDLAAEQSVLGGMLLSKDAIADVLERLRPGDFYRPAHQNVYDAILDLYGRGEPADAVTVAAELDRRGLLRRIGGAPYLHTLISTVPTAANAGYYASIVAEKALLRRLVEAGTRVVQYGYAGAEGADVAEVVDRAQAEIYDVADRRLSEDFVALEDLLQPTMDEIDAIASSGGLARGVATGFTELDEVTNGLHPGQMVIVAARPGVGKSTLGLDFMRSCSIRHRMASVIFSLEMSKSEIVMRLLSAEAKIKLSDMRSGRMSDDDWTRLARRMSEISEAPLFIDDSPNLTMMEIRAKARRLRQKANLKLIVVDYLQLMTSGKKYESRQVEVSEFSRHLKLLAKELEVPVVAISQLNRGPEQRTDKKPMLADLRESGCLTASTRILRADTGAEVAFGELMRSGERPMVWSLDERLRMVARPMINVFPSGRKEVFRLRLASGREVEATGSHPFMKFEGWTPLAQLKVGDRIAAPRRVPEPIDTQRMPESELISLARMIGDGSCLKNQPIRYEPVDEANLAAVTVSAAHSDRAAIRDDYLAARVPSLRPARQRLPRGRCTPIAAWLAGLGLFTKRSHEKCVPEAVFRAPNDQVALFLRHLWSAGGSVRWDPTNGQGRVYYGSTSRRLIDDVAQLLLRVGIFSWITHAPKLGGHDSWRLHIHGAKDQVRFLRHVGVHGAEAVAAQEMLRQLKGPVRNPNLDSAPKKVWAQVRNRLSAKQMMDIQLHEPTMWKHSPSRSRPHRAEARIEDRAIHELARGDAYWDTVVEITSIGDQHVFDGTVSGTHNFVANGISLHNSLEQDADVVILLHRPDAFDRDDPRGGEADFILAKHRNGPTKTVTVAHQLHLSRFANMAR

[4] = target: T3, Protein RecA (Mycobacterium tuberculosis, UniProt P9WHJ3); experiment: Fluorescence Cell-Free Homogeneous Dose Retest to Identify Inhibitors of RecA-Intein Splicing Activity. [Related pubchem assays (depositor defined):AID2097, AID2223, AID489010, AID492950]; assay type: functional
T3 sequence (P9WHJ3 whole entry): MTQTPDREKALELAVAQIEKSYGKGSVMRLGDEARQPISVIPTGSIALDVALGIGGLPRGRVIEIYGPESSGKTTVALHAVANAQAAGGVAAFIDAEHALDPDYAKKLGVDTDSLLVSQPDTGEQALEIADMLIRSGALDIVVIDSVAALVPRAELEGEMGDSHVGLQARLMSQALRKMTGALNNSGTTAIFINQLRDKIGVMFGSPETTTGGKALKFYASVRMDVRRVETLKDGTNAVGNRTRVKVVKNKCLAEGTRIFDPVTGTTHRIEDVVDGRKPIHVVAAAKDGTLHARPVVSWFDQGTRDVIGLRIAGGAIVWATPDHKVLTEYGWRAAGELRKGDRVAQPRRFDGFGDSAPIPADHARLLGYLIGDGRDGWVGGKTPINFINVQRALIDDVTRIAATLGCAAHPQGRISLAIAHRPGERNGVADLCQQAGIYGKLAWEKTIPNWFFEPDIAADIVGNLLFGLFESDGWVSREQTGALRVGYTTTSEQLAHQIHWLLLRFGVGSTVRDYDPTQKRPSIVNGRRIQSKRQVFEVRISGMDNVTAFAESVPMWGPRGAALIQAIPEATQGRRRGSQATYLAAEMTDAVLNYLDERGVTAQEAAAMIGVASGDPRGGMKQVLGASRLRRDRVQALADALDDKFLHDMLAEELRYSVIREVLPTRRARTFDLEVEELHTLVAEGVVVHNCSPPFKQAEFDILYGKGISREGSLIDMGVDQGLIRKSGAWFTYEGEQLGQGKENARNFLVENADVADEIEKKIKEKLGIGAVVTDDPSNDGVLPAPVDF

[5] = HPDE-C7 pancreatic duct cell viability loss – fluorescence, HTS (AID 430); assay type: functional, cell-based; settings: Homo sapiens
[6] = viability loss of HPDE-C7K cells – cell-based, fluorescence, HTS, primary screen (AID 431); assay type: functional; settings: Homo sapiens
[7] = M. tuberculosis H37Rv growth inhibitors, H37Rv strain (AID 1626); assay type: functional
[8] = target: Prothrombin (Homo sapiens, UniProt P00734); experiment: Thrombin 1536 HTS Dose Response Confirmation. [Related pubchem assays: 1046 (Thrombin 1536 HTS; hits were confirmed in this assay)]; assay type: functional
[9] = target: DNA dC->dU-editing enzyme APOBEC-3A (Homo sapiens, UniProt P31941); experiment: A3A deaminase inhibition for selectivity – biochemical, dose response (AID 504722); assay type: functional
Chain of DNA dC->dU-editing enzyme APOBEC-3A (P31941 whole entry): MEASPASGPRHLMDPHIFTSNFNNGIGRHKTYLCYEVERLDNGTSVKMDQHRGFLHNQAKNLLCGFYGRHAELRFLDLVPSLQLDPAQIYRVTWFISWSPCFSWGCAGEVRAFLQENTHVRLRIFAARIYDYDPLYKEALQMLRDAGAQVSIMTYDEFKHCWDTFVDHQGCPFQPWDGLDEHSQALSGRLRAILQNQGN

[10] = target: DNA dC->dU-editing enzyme APOBEC-3G (Homo sapiens, UniProt Q9HC16); experiment: Dose Response confirmation of small molecule APOBEC3G DNA Deaminase Inhibitors via a fluorescence-based single-stranded DNA deaminase assay. [Related pubchem assays (depositor defined):AID493012, AID493028]; assay type: functional
Chain of DNA dC->dU-editing enzyme APOBEC-3G (Q9HC16 whole entry): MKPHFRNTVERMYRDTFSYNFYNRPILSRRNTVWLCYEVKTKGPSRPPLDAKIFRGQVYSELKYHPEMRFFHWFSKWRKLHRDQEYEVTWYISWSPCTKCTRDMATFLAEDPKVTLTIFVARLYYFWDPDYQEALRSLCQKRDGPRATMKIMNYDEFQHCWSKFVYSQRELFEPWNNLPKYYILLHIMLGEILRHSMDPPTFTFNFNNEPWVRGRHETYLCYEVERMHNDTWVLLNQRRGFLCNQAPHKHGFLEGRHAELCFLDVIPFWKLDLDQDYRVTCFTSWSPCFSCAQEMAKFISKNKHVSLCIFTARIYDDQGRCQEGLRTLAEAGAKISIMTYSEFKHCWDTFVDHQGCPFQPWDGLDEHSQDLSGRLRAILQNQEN

[11] = NIH-3T3 fibroblast cytotoxicity, dose response, cytotoxicity control, cell-based, fluorescence, Alamar Blue, secondary assay (AID 2327); assay type: functional;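 note: NIH-3T3 mouse fibroblasts cultured with fluconazole at 8 µg/mL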
[12] = fluconazole-exposed Candida albicans growth modulators – fluorescence, retest, confirmation (AID 2467); assay type: functional, cell-based
[13] = tested on: Vero; experiment: cells; assay type: functional; settings: Chlorocebus sabaeus
[14] = target: Induced myeloid leukemia cell differentiation protein Mcl-1 (Homo sapiens, UniProt Q07820); assay type: functional
Chain of Induced myeloid leukemia cell differentiation protein Mcl-1 (Q07820 whole entry): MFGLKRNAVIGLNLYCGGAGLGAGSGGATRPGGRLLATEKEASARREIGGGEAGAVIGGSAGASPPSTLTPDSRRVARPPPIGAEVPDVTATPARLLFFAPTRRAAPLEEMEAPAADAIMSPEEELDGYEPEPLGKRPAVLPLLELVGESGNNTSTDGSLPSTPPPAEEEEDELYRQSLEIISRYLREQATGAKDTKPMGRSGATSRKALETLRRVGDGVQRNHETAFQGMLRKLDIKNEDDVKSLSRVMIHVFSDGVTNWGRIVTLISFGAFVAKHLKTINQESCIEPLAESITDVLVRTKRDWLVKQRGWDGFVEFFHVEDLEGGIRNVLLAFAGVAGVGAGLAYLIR

[15] = target: Beta-galactosidase (Escherichia coli, UniProt Q8VNN2); experiment: detection-enzyme interference by beta-gal modulators – biochemical, E. coli enzyme, set 3, artefact control for CCR6 antagonist project, dose response (AID 504712); assay type: functional
Chain of Beta-galactosidase (Q8VNN2 whole entry): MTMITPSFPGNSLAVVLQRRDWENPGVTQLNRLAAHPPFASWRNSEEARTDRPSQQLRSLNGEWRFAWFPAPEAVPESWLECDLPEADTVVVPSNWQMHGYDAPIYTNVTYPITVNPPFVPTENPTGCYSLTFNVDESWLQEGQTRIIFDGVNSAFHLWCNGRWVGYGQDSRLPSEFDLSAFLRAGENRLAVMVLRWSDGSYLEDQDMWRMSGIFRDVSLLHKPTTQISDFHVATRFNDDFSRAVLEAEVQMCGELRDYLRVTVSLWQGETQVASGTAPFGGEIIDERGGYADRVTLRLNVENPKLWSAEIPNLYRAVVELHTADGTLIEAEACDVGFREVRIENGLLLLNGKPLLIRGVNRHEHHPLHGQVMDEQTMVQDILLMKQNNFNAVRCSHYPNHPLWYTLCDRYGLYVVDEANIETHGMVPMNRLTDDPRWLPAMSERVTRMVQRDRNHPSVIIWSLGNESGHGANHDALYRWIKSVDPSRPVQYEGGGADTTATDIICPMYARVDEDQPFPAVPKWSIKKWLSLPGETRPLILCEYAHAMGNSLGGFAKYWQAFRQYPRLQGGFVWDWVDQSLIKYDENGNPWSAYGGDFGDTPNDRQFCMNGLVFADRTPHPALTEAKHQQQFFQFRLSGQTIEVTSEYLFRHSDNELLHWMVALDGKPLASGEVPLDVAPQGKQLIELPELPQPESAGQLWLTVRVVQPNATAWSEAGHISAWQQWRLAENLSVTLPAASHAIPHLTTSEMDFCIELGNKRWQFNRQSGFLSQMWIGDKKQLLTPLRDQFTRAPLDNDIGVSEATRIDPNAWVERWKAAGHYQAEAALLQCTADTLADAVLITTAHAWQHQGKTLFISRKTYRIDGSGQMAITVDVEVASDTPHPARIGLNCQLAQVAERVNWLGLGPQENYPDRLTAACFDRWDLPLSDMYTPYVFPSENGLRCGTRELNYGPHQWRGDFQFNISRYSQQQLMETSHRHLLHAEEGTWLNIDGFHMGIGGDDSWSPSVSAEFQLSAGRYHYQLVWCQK

[16] = target: T4, Hexokinase HKDC1 (Homo sapiens, UniProt Q2TB90); experiment: inhibition of HKDC1 glucose phosphorylation – biochemical, W721R variant, dose response (AID 504729); assay type: functional
T4 sequence (Q2TB90 whole entry): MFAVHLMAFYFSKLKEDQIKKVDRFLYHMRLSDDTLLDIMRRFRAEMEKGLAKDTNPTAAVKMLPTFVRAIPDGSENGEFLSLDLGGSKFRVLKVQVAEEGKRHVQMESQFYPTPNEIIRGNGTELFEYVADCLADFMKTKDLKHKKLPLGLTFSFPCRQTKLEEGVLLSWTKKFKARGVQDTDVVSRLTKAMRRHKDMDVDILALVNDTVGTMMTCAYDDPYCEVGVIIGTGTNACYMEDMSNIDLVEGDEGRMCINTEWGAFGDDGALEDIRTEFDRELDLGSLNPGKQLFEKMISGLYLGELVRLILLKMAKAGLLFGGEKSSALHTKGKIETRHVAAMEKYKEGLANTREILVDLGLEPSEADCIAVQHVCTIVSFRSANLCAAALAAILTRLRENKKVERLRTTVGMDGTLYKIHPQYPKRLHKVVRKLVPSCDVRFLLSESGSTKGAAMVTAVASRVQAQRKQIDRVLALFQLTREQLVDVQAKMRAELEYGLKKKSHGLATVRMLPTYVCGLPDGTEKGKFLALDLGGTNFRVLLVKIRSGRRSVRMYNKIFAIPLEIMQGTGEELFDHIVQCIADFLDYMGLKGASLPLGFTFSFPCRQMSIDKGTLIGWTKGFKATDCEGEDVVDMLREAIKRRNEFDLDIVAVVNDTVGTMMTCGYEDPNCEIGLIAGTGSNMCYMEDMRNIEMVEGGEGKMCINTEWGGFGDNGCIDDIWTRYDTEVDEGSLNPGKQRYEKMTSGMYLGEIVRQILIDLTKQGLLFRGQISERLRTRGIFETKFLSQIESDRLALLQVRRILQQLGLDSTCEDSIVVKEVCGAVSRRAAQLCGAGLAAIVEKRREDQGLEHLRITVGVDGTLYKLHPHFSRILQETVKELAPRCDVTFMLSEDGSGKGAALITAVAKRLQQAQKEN

[17] = tested on: Vero; experiment: viability of Vero cells under compound – cytotoxicity control for flavivirus capping enzyme inhibitors (AID 588742); assay type: functional; settings: Chlorocebus sabaeus
[18] = target: Genome polyprotein (dengue virus type 2, UniProt P29990); experiment: flavivirus cap methylation enzyme inhibition – biochemical, confirmation dose response, primary screen (AID 588689); assay type: functional
Chain of Genome polyprotein (P29990 2492-3391 limits assumed): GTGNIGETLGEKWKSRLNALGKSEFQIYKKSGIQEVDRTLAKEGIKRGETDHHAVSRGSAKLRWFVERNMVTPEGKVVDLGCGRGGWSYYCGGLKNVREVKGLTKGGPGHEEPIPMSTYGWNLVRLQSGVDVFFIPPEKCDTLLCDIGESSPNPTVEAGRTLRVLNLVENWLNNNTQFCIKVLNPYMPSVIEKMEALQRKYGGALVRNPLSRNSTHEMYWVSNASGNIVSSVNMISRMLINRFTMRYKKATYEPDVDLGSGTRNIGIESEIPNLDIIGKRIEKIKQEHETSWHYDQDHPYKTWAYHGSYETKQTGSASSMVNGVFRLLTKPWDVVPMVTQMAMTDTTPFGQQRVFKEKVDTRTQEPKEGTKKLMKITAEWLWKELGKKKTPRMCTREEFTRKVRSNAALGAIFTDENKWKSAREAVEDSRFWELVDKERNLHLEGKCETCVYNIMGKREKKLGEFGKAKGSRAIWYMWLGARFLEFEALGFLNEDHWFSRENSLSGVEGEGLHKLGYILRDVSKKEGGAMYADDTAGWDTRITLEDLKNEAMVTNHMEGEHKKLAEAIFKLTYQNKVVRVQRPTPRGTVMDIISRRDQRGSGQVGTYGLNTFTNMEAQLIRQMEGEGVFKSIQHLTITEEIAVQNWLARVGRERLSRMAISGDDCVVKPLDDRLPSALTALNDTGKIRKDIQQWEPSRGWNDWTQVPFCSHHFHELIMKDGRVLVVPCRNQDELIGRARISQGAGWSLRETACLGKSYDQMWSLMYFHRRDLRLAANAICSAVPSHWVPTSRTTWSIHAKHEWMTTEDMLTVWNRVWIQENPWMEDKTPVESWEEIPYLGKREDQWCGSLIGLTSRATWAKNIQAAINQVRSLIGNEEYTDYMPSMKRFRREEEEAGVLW

[19] = target: T5, Polyadenylate-binding protein 1 (Homo sapiens, UniProt P11940); experiment: MLLE binding blockers, Cy5 peptide tracer – biochemical, fluorescence polarization, Cy5-PAM2 peptide, secondary, miRNA deadenylation inhibitor project, dose response (AID 602260); assay type: functional; settings: read-out: IC50_Mean
T5 sequence (P11940 whole entry, the tested form may be a part): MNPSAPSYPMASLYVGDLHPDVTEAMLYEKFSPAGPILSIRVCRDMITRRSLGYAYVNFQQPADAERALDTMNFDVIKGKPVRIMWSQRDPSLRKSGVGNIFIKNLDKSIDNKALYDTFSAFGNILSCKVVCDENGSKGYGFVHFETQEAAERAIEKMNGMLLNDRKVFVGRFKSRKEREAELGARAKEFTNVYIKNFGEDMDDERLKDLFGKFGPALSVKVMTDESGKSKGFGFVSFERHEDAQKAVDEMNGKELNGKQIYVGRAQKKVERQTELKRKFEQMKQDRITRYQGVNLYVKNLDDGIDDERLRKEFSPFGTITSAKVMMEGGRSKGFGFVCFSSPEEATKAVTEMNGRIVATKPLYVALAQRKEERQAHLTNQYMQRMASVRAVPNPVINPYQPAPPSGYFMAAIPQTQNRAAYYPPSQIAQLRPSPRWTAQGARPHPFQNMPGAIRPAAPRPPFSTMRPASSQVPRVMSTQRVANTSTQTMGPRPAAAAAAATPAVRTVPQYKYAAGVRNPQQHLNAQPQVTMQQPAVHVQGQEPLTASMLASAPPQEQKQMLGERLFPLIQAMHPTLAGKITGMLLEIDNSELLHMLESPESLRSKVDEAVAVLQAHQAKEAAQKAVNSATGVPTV

[20] = target: T5, Polyadenylate-binding protein 1; experiment: MLLE domain peptide-binding blockers, IC50 – biochemical, fluorescence polarization, FITC-PAM2 peptide, dose response (AID 602259); assay type: functional; settings: read-out: IC50_Mean
[21] = target: T6, Estrogen receptor (Homo sapiens, UniProt P03372);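 note: potency for inhibiting coactivator peptide recruitment to the receptor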
T6 sequence (P03372 whole entry): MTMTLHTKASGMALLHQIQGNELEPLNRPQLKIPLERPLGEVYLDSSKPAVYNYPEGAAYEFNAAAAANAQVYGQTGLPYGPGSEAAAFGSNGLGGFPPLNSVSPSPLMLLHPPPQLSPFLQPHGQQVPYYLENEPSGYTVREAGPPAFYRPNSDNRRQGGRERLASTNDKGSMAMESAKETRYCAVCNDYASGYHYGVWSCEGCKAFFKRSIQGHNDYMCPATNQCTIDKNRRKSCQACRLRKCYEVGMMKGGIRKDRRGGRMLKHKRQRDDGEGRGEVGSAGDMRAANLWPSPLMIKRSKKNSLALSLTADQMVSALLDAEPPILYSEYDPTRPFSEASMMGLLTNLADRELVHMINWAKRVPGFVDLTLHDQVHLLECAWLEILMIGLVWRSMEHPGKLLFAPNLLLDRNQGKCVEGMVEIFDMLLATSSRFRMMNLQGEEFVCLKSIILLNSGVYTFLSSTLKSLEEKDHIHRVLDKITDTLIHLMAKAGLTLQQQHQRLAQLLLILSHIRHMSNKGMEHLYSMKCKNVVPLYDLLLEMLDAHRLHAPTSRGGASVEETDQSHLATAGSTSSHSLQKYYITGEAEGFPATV

Compound: COC1(OC)C(/C=C/c2ccc(Cl)cc2)C(C#N)(C#N)C1(OC)OC (stereo unspecified)
- IC50 [1]: 1.76 µM (active)
- EC50 [2]: 33.6 µM (active)
- AC50 [3]: 33.8 µM (active)
- EC50 [4]: 2.45 µM (active)

Compound: Cc1ccc(S(=O)(=O)c2cc3c(=O)n4ccccc4nc3n(Cc3ccco3)c2=N)cc1C
- EC50 [5]: 18.8 µM (active)
- EC50 [6]: 17.9 µM (active)

Compound: Cc1ccc(C(=O)/C=C\Nc2ccc(C)c(C)c2)cc1
- IC50 [7]: > 100 µM (active)

Compound: O=C(Oc1oc(-c2ccco2)nc1/C=N/c1ccccc1)c1ccco1
- EC50 [5]: > 20 µM (not active)
- EC50 [6]: > 20 µM (not active)
- IC50 [8]: 1.32 µM (active)

Compound: N#Cc1cc2c([nH]c1=S)CCCC2
- IC50 [9]: > 100 µM (inactive)
- IC50 [10]: 5.16 µM (active)

Compound: COc1ccccc1C(C[N+](=O)[O-])c1c(N)n(C)c(=O)n(C)c1=O (stereo unspecified)
- IC50 [1]: 1.61 µM (active)
- EC50 [11]: 9.19 µM (active)
- EC50 [12]: 6.01 µM (active)
- CC50 [13]: 9.01 µM (active)

Compound: CCc1ccc(-n2c(=O)c3ccccc3n3c(S)nnc23)cc1.CN(C)C=O
- IC50 [9]: > 100 µM (inactive)
- IC50 [10]: 4.9 µM (active)

Compound: CCc1sc(N)nc1-c1ccccc1
- IC50 [7]: > 100 µM (active)

Compound: CC12CNCC(C)(CNC1)C2O (stereo unspecified)
- EC50 [5]: > 20 µM (not active)
- EC50 [6]: > 20 µM (not active)

Compound: Cc1ccccc1N1C(=O)NC(=O)/C(=C/Nc2ccc3c(c2)OCO3)C1=O
- IC50 [7]: > 100 µM (active)

Compound: CCOC(=O)/C=C(\C)Sc1cc(O)c2ccccc2c1O
- IC50 [14]: 10.5 µM (active)
- IC50 [15]: > 66.6 µM (inactive)
- IC50 [16]: 11.8 µM (active)
- CC50 [17]: 22 µM (active)
- IC50 [18]: 5.24 µM (active)
- IC50 [19]: > 66 µM (inactive)
- IC50 [20]: > 66 µM (inactive)

Compound: Cc1ccc(S(=O)(=O)N2CCN(C(=O)CSc3ncc(C(F)(F)F)cc3Cl)CC2)cc1
- IC50 [21]: > 50 µM (not active)

Compound: Oc1ccc(O)c(Cc2nc3ccccc3[nH]2)c1
- IC50 [16]: 3.45 µM (active)
